Source: patent US20240335555A1, “TECHNOLOGIES FOR PREVENTING OR TREATING INFECTIONS” (priority 2021, published 2024)
*: point of attachment. Biotin = O=C1N[C@H]2[C@H](CS[C@H]2CCCCC(=O)*)N1; PEG4 = NCCOCCOCCOCCOCCC(=O)O

What was measured:
[1] = tested on: USA-WA1/2020 (SARS-CoV-2) virus; conditions: USA-WA1/2020 virus
[2] = target: T1, ACE2 binding to Spike RBD (Severe acute respiratory syndrome coronavirus 2, UniProt P0DTC2); assay: biochemical; conditions: for inhibition at 1 µM: @ 1,000 nM
T1 construct: Biotin-(I-24) or His-tagged RBD protein is added; purchased Acro Biosystems SPD-C52H3 (RBD); AC2-H5257 (ACE2-Fc)

[3] = target: T2, SARS-CoV-2 (COVID-19) S Protein RBD (Severe acute respiratory syndrome coronavirus 2, UniProt P0DTC2); type: binding; conditions: Octet
T2 construct: SARS-CoV-2 (COVID-19) S Protein RBD, His Tag—Acro Biosystems SPD-C52H3; purchased Acro Biosystems SPD-C52H3

Row | Compound | IC50 [1] | inhibition at 1 µM [2] | IC50 ([2]; ELISA competition, read-out: IC50, Inhibition of ACE2 Binding to Spike RBD) | KD, Binding to Anchored Spike RBD [3]
1 | CC[C@H](C)[C@H](NC(=O)[C@H](CC(C)C)NC(=O)[C@H](CC(=O)O)NC(=O)[C@H](CO)NC(=O)[C@@H](NC(=O)[C@H](CCCNC(=N)N)NC(=O)[C@H](CCSC)NC(=O)[C@H](CO)NC(=O)[C@H](C)NC(=O)[C@H](CCC(=O)O)NC(=O)[C@H](C)NC(=O)[C@H](Cc1c[nH]cn1)NC(=O)CNC(=O)[C@H](CC(C)C)NC(=O)[C@H](CCC(=O)O)NC(=O)[C@H](CC(=O)O)NC(=O)[C@H](CC(C)C)NC(=O)[C@H](CC(C)C)NC(=O)[C@H](CCCNC(=N)N)NC(=O)[C@H](CCSC)NC(=O)[C@@H](NC(=O)[C@H](CCC(=O)O)NC(=O)[C@H](Cc1ccc(O)cc1)NC(=O)[C@@H](NC(=O)[C@H](CCCCN)NC(=O)[C@H](CCC(N)=O)NC(=O)[C@H](CC(C)C)NC(=O)[C@@H](NC(=O)[C@H](Cc1c[nH]c2ccccc12)NC(=O)[C@H](CCC(=O)O)NC(=O)[C@H](CCCCN)NC(=O)[C@H](CC(=O)O)NC(=O)CCOCCOCCOCCOCCNC(=O)CCCC[C@@H]1SC[C@@H]2NC(=O)N[C@@H]21)[C@@H](C)CC)[C@@H](C)CC)[C@@H](C)CC)C(C)C)C(=O)N[C@@H](Cc1ccc(O)cc1)C(=O)N[C@@H](CCC(=O)O)C(=O)N[C@@H](Cc1ccccc1)C(=O)N[C@@H](CCSC)C(=O)N[C@@H](CCCCN)C(=O)N[C@@H](CCCCN)C(=O)NCC(=O)N[C@@H](CC(=O)O)C(=O)N[C@@H](CCC(=O)O)C(=O)N[C@@H](CCCNC(=N)N)C(=O)N[C@@H](CC(C)C)C(=O)N[C@@H](CC(C)C)C(=O)N[C@@H](CCC(=O)O)C(=O)N[C@@H](CCC(=O)O)C(=O)N[C@@H](C)C(=O)N[C@@H](CCC(=O)O)C(=O)N[C@@H](CCCNC(=N)N)C(=O)N[C@@H](CC(C)C)C(=O)N[C@@H](CC(C)C)C(=O)N[C@@H](CCC(=O)O)C(=O)N[C@@H](CCC(=O)O)C(=O)N[C@H](C(=O)N[C@@H](CCC(=O)O)C(=O)N[C@@H](CCCNC(=N)N)C(=O)O)C(C)C [Compound I-6] | < 4.6 nM | – | – | –
2 | CC[C@H](C)[C@H](NC(=O)[C@H](CC(C)C)NC(=O)[C@H](CC(=O)O)NC(=O)[C@H](CO)NC(=O)[C@@H](NC(=O)[C@H](CCCNC(=N)N)NC(=O)[C@H](CCSC)NC(=O)[C@H](CO)NC(=O)[C@H](C)NC(=O)[C@H](CCC(=O)O)NC(=O)[C@H](C)NC(=O)[C@H](Cc1c[nH]cn1)NC(=O)CNC(=O)[C@H](CC(C)C)NC(=O)[C@H](CCC(=O)O)NC(=O)[C@H](CC(=O)O)NC(=O)[C@H](CC(C)C)NC(=O)[C@H](CC(C)C)NC(=O)[C@H](CCCNC(=N)N)NC(=O)[C@H](CCSC)NC(=O)[C@@H](NC(=O)[C@H](CCC(=O)O)NC(=O)[C@H](Cc1ccc(O)cc1)NC(=O)[C@@H](NC(=O)[C@H](CCCCN)NC(=O)[C@H](CCC(N)=O)NC(=O)[C@H](CC(C)C)NC(=O)[C@@H](NC(=O)[C@H](Cc1c[nH]c2ccccc12)NC(=O)[C@H](CCC(=O)O)NC(=O)[C@H](CCCCN)NC(=O)[C@H](CC(=O)O)NC(=O)CCOCCOCCOCCOCCNC(=O)CCCC[C@@H]1SC[C@@H]2NC(=O)N[C@@H]21)[C@@H](C)CC)[C@@H](C)CC)[C@@H](C)CC)C(C)C)C(=O)N[C@@H](Cc1ccc(O)cc1)C(=O)N[C@@H](CCC(=O)O)C(=O)N[C@@H](Cc1ccccc1)C(=O)N[C@@H](CCSC)C(=O)N[C@@H](CCCCN)C(=O)N[C@@H](CCCCN)C(=O)NCC(=O)N[C@@H](CC(=O)O)C(=O)N[C@@H](CCC(=O)O)C(=O)N[C@@H](CCCNC(=N)N)C(=O)N[C@@H](CC(C)C)C(=O)N[C@@H](CC(C)C)C(=O)N[C@@H](CCC(=O)O)C(=O)N[C@@H](CCC(=O)O)C(=O)N[C@@H](C)C(=O)N[C@@H](CCC(=O)O)C(=O)N[C@@H](CCCNC(=N)N)C(=O)N[C@@H](CC(C)C)C(=O)N[C@@H](CC(C)C)C(=O)N[C@@H](CCC(=O)O)C(=O)N[C@@H](CCC(=O)O)C(=O)N[C@H](C(=O)N[C@@H](CCC(=O)O)C(=O)N[C@@H](CCCNC(=N)N)C(N)=O)C(C)C [Compound I-14] | < 4.6 nM | – | – | –
3 | {Biotin-PEG4}-DKEEILNKIYEIMRLLDELGNAEASMRVSDLILEFMKKGDERLLEEAERLLEEVER-NH2 [Compound I-2] | – | 30% | – | –
4 | Ac-DKEEILNKIYEIMRLLDELGNAEASMRVSDLILEFMKKGDERLLEEAERLLEEVER-NH2 [Compound I-1] | – | 42% | > 1000 nM | No Binding
